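96-well plates; 48 h exposure; 5 concentrations. Endpoints by linear interpolation between flanking doses. Not reached: highest tested concentration assigned. GI50 = concentration required for 50% inhibition of growth.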 Calls of active or inactive are those of the source. No stated cut-off is given here; in the data, active = GI50 up to about 1.1 µM and inactive = higher.
Experiments:
Test in all cases: growth of human tumour cells (NCI), 48 h
[1] = test system: HT-29
[2] = test system: NCI-H23
[3] = test system: SK-MEL-28
[4] = test system: SF-539
[5] = test system: A498
[6] = test system: NCI-H226
[7] = test system: SN12C
[8] = test system: SW-620
[9] = test system: 786-0
[10] = test system: BT-549
[11] = test system: HCT-116
[12] = test system: COLO 205
[13] = test system: Malme-3M
[14] = test system: HOP-62
[15] = test system: MDA-N
[16] = test system: SNB-75
[17] = test system: M14
[18] = test system: Hs-578T
[19] = test system: NCI-H522

Measured: GI50

O=C1/C(=C/c2ccc(Cl)cc2)CSc2ccccc21
inactive: [1] 19.4 µM | [2] 21.3 µM | [3] 23.1 µM | [4] 17.8 µM | [5] 62.5 µM | [6] 17.4 µM | [7] 17.2 µM | [8] 3.71 µM | [9] 17.5 µM | [10] 27 µM | [11] 2.6 µM | [12] 25.3 µM | [13] 25.5 µM | [14] 20.5 µM | [15] 5.78 µM | [16] 31.9 µM | [17] 31.8 µM | [18] 4.57 µM

O=P(c1ccccc1)(c1ccccc1)N1O[C@@H](c2ccccc2)C=C[C@H]1c1ccccc1
inactive: [1] 9.75 µM | [2] 10.8 µM | [3] 17.3 µM | [4] 16.2 µM | [6] 11.9 µM | [7] 4.36 µM | [8] 12.9 µM | [9] 10.4 µM | [10] 17.5 µM | [11] 4.11 µM | [12] 12.3 µM | [13] 14.5 µM | [14] 13.1 µM | [15] 3.31 µM | [19] 9.33 µM | [16] 13.3 µM | [17] 10.9 µM | [18] 14.2 µM

COc1ccccc1C1c2cc3c(cc2OC(N2CCCC2)C1C)OCO3 (configuration not stated)
inactive: [1] 21.4 µM | [2] 18.3 µM | [3] 20.4 µM | [4] 14.9 µM | [5] 15.2 µM | [7] 17.1 µM | [8] 18 µM | [9] 16.8 µM | [10] 16.8 µM | [11] 14.8 µM | [12] 18 µM | [13] 18.4 µM | [14] 15.1 µM | [15] 11.1 µM | [19] 9.95 µM | [16] 12.9 µM | [17] 13.7 µM | [18] 7.48 µM

C=CC(C)(O)/C=C/C=C(\C)C(CC1OC1(C)C)OC(=O)/C(C)=C\C (configuration not stated)
inactive: [1] > 100 µM | [2] > 100 µM | [3] > 100 µM | [4] > 100 µM | [5] > 100 µM | [7] > 100 µM | [8] > 100 µM | [9] > 100 µM | [10] > 100 µM | [11] > 100 µM | [12] > 100 µM | [13] > 100 µM | [14] > 100 µM | [15] > 100 µM | [19] > 100 µM | [16] > 100 µM | [17] > 100 µM | [18] > 100 µM

O=C1CCCC2=C1CC1=C(CCCC1=O)N2c1ccc(Cl)cc1
inactive: [1] > 100 µM | [2] > 100 µM | [3] > 100 µM | [4] > 100 µM | [5] > 100 µM | [6] > 100 µM | [7] > 100 µM | [8] > 100 µM | [9] > 100 µM | [10] > 100 µM | [11] > 100 µM | [12] > 100 µM | [13] > 100 µM | [14] > 100 µM | [15] > 100 µM | [16] > 100 µM | [17] > 100 µM | [18] > 100 µM

O=[N+]([O-])c1cn[n+]([O-])c2ccccc12
inactive: [1] 4.65 µM | [2] 14.7 µM | [3] 10.4 µM | [4] 10.4 µM | [5] 23.1 µM | [6] 7.36 µM | [7] 8.83 µM | [8] 1.98 µM | [9] 2.43 µM | [10] 5.22 µM | [11] 1.24 µM | [12] 13.2 µM | [13] 15.4 µM | [14] 12.9 µM | [15] 13.6 µM | [17] 2.87 µM | [18] 13.8 µM

CCN(CC)CCCn1c(=O)c2cccnc2n2c3c(=O)n(C)c(=O)n(C)c3nc12
inactive: [1] > 100 µM | [2] > 100 µM | [3] > 100 µM | [4] > 100 µM | [6] > 100 µM | [7] > 100 µM | [8] > 100 µM | [9] > 100 µM | [10] > 100 µM | [11] > 100 µM | [12] > 100 µM | [13] > 100 µM | [14] > 100 µM | [15] > 100 µM | [19] > 100 µM | [16] > 100 µM | [17] > 100 µM | [18] > 100 µM

CCC1OC2C(CC=C(C)C)=C3OC(C)(O)C(C)(CC)C(OC(=O)c4ccccc4)C3=C3OC(=O)C=C1C32 (configuration not stated)
inactive: [1] 40.8 µM | [2] 35.2 µM | [3] 83.9 µM | [4] 25.2 µM | [5] 40.3 µM | [7] 27.7 µM | [8] 57.1 µM | [9] 41.7 µM | [10] 19.1 µM | [11] 32.1 µM | [12] 18.1 µM | [13] 39 µM | [14] 76.2 µM | [15] 20.5 µM | [19] 18.8 µM | [16] 42.4 µM | [17] 45.2 µM | [18] 23.1 µM

O=C(CCCCCCCCC(=O)N1C(=O)CC(=O)N(c2cccc(Cl)c2)C1=S)N1C(=O)CC(=O)N(c2cccc(Cl)c2)C1=S
inactive: [1] 36.9 µM | [2] 39.7 µM | [5] 39.9 µM | [7] 40.2 µM | [9] 45.6 µM | [10] 44.1 µM | [11] 34.2 µM | [12] 37.3 µM | [13] 66.1 µM | [14] 43.2 µM | [15] 41.2 µM | [19] 16.3 µM | [16] 33.3 µM | [17] 38.9 µM | [18] 19.3 µM

CCOc1ccc(/N=N/C2C(=O)N(C(=O)CC(=O)Nc3ccc(C)cc3)N=C2C)cc1 (configuration not stated)
inactive: [1] 24 µM | [2] 26.5 µM | [3] 30.8 µM | [4] 14.8 µM | [5] 13.2 µM | [6] 26.3 µM | [7] 35.2 µM | [8] 21.6 µM | [9] 16 µM | [10] 23.6 µM | [11] 12.4 µM | [12] > 100 µM | [13] 47.5 µM | [14] 16 µM | [15] 2.7 µM | [16] 8.02 µM | [17] 52.7 µM | [18] 5.73 µM

Cc1cccc(CNNC(=O)c2cc[n+]([BH2-]C#N)cc2)c1
inactive: [1] 29.3 µM | [2] 18.6 µM | [3] 6.67 µM | [5] 24.7 µM | [6] 23.9 µM | [8] 34 µM | [9] 30.7 µM | [10] 42.5 µM | [11] 23.3 µM | [12] 16.5 µM | [13] 15 µM | [14] 38 µM | [15] 29.2 µM | [16] 21.7 µM | [17] 37.9 µM | [18] 21.6 µM

From ChEMBL document CHEMBL1201862, “PubChem BioAssay data set” (2004)
